Test results: US6900194B1, “Use of substituted 4-biarylbutyric and 5-biarylpentanoic acid derivatives as matrix metalloprotease inhibitors for the treatment of respiratory diseases” (Bayer Aktiengesellschaft, priority 1998, dated 2005)

Assays:
[1] = target: MMP-13 (Human Collagenase 3) (Homo sapiens, UniProt P45452); assay: P218 quenched fluorescence assay, MMP-13 (human); format: biochemical
Description: (§1) P218 Quenched Fluorescence Assay for MMP Inhibition:
(§2) This assay is adapted from the one described by Knight et al., FEBS Letters, 296, 263-266 (1992) for MMP-3 and a related substrate. The rate of hydrolysis of the synthetic substrate H-MCA-Pro-Lys-Pro-Leu-Ala-Leu-DPA-Ala-Arg-NH2 (P218) by the respective MMPs is monitored fluorometrically, using an excitation wavelength of 340 nm and an emission wavelength of 395 nm, in the presence or absence of the test compounds. The substrate is made up initially in 100% DMSO to a concentration of 1×10^−2 M, then diluted in assay buffer to a final concentration of 20 μM. […] The total assay volume in a 96 well microtitre plate is 150 μl, Cleavage of the substrate between the Leu-Ala residues allows the fluorescence of the MCA group to be detected on a fluorometer (Cytofluor II) following excitation at 340 nm and emission at 395 nm. Change in fluorescence is continually monitored for a 40 min period.
(§3) The Ki's are calculated using the method described by Williams and Morrison, Methods in Enzymology, 63, 437-467 (1979) to measure Ki apparent for tight binding inhibitors, and is summarised as follows: [I]0/(1−vi/v0)=Ki apparent ×vi/v0+[E]0 [I]0 and [E]0 are inhibitor and enzyme concentrations, and vi/v0 are reaction velocities with/without inhibitor. […]
(§4) IC50's are determined at each enzyme concentration using Xlfit software. […]

MMP-9 (Gelatinase B) = target: T1, MMP-9 (Gelatinase B) (Homo sapiens, UniProt P14780); assay: P218 quenched fluorescence assay, MMP-9; format: biochemical; settings: read-out: Potency Ki vs. MMP-9
T1 construct: polymorphonuclear leukocytes (PMN) preparations are isolated as described above from 3 or more units of freshly drawn whole blood; from tissue; host or cells: polymorphonuclear leukocytes from whole blood, stimulated with PMA; supernatant purified
T1 sequence (P14780 94-707): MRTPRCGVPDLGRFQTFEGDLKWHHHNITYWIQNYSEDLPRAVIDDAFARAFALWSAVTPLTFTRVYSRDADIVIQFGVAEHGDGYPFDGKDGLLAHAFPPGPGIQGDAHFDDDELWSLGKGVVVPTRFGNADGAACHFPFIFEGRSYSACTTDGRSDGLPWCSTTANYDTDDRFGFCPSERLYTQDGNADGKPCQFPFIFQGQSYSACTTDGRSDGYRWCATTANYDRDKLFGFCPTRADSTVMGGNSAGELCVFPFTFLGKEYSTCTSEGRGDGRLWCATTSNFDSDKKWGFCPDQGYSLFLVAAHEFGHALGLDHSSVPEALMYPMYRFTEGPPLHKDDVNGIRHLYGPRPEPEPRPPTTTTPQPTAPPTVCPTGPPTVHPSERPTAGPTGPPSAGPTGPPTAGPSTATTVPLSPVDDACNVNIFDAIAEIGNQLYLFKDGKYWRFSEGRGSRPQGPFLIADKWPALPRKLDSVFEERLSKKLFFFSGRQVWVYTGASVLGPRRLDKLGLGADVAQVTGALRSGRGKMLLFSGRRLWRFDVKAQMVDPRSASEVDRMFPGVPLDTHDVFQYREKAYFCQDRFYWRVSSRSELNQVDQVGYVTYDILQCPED
Description: as §1, §2, §3, §4

Compound	IC50 ([1]; read-out: IC50 vs. MMP-13 (value marked *)) [nM]	Ki (MMP-9 (Gelatinase B)) [nM]	Ki ([1]; read-out: Potency Ki vs. MMP-13) [nM]
CCOc1ccc(-c2ccc(C(=O)CC(CCN3C(=O)c4ccccc4C3=O)C(=O)O)cc2)cc1 (single isomer, unassigned; (+)) [Example 2, (+)-2-[2-(1,3-Dioxo-1,3-dihydro-2H-isoindol-2-yl)ethyl]-4-(4′-ethoxy[1,1′-biphenyl]-4-yl)-4-oxobutanoic acid]	70	1.2	
O=C(CC(CCN1C(=O)c2ccccc2C1=O)C(=O)O)c1ccc(-c2ccc(Cl)cc2)cc1 (single isomer, unassigned; (+)) [Example 4, (+)-4-(4′-Chloro[1,1′-biphenyl]4-yl)-2-[2-(1,3-dioxo-1,3-dihydro-2H-isoindol-2-yl)ethyl]-4-oxobutanoic acid]		0.7	5.6
